Test results as given in US9682126B2, “Postprandial gastrokinetic agent” (ZERIA PHARMACEUTICAL CO., LTD., priority 2013, dated 2017).
Read-outs that look alike come from different tables or passages of the source. Ends that are not written are not given here. * marks the point of attachment. Octanoyl = CCCCCCCC(=O)*

How the values were obtained:
[1] = system: subjects; settings: cited from earlier work
[2] = system: Suncus murinus; experiment: Postprandial gastric motility, force transducer on stomach, motility index MI (Example 1); format: in vivo; settings: ghrelin 50 ng/kg iv after 10-min feed intake
Method: Effects of administration of each of ghrelin and motilin and co-administration of ghrelin and motilin on postprandial gastric motility in Suncus murinus were studied. Each of Suncus motilin (Scrum Inc., Tokyo, Japan) and human ghrelin (Asubio Pharma Co., Ltd., Hyogo, Japan) was dissolved in phosphate buffered saline (PBS) containing 0.1% bovine serum albumin. Suncus murinus (male, outbred KAT strain, 8 to 9 weeks old, 73 to 90 g) was used for the experiment. Each animal was bred in a plastic cage provided with an empty can as a nest box under the following conditions: temperature at 23±2° C., illumination between 8:00 and 20:00, and free intake of commercial trout feed (SP, Nippon Formula Feed Mfg Co., Ltd., Yokohama, Japan). After 3 hours of fasting, Suncus murinus was anesthetized by an intraperitoneal injection of pentobarbital sodium (50 mg/kg). Through a midline incision, the stomach was exposed outside the body, and a force transducer was fixed via suture in the circular muscle direction of the body of stomach. […] Amplified analog signals were converted into digital signals by an analog-to-digital converter (ADC-20, Pico Technology Ltd, St Neots, UK), and the digital signals were recorded on a computer. […] Gastric motility was quantitated using a motility index (MI). A motility index (MI) based on a drug was calculated using the following equation. […]

[3] = system: Suncus murinus; experiment: Postprandial motility by co-administration of ghrelin and motilin, ΔMI (Example 3); format: in vivo
Method: Each of Suncus motilin (Scrum Inc., Tokyo, Japan) and human ghrelin (Asubio Pharma Co., Ltd., Hyogo, Japan) was dissolved in PBS containing 0.1% bovine serum albumin.
Suncus murinus (male, outbred KAT strain, 7 to 39 weeks old, 56 to 91 g) was used for the experiment. The Each animal was bred in a plastic cage provided with an empty can as a nest box under the following conditions: temperature at 23±2° C., illumination between 8:00 and 20:00, and free intake of commercial trout feed (SP, Nippon Formula Feed Mfg Co., Ltd., Yokohama, Japan).
After 3 hours of fasting, Suncus murinus was anesthetized by an intraperitoneal injection of pentobarbital sodium (50 mg/kg). Through a midline incision, the stomach was exposed outside the body, and a force transducer was fixed via suture in the circular muscle direction of the body of stomach. The wire extending from the force transducer was inserted through the abdominal wall, passed under the skin, and exposed at the back of the neck.
An intravenous catheter was inserted in the right jugular, and extracorporeally fixed to the back. The catheter was filled with heparinized saline (100 units/mL) to prevent clotting.
Each of the operated Suncus murinus was allowed to recover for several days.
Drug administration and measurement of gastric motility were performed in the conscious, free-moving state without anesthesia.
2 g of feed was given to each Suncus murinus fastened (for 8 to 10 hours) for 10 minutes. After the intake of feed for 10 minutes, ghrelin (50, 1,000, or 3,000 ng/kg), motilin (300, 500, 1,000, or 3,000 ng/kg), or a mixed solution of ghrelin (15 or 50 ng/kg) and motilin (100, 200, or 300 ng/kg) was intravenously administered through a jugular vein catheter rapidly.
Amplified analog signals were converted into digital signals by an analog-to-digital converter (ADC-20, Pico Technology Ltd, St Neots, UK), and the digital signals were recorded on a computer.
Phase III contractions of MMC in conscious Suncus murinus were defined on the basis of those in dogs and humans (that is, clustered contractions with an amplitude of 8 g or more that lasts for 5 minutes or more).
Gastric motility was quantitated using a motility index (ΔMI). A motility index (ΔMI) based on a drug was calculated using the following equation. ΔMI (%)=(A−C)/B×100 A: AUC of contractions for 10 minutes during which the drug was administered B: AUC of 10-minute spontaneous phase III contractions appeared before administration of the drug C: (AUC of contractions appeared for 5 minutes between 5 and 10 minutes after the intake of feed)×2 (2) Results (FIG. 9) A. Action of Ghrelin Alone

[4] = system: isolated stomach of Suncus murinus; settings: ghrelin alone, even at a high dose, in vitro; cited from earlier work
[5] = system: Suncus murinus; experiment: Gastric motility in interdigestive period, sham-operated vs vagotomized (Example 2); format: in vivo; settings: for amplitude of spontaneous phase II contractions: ghrelin 0.1, 0.3, 1, 3, or 10 μg/kg/min iv over 10 minutes in phase II
Method: Each of Suncus motilin (Scrum Inc., Tokyo, Japan) and human ghrelin (Asubio Pharma Co., Ltd., Hyogo, Japan) were dissolved in PBS containing 0.1% bovine serum albumin. Suncus murinus (male, outbred KAT strain, 7 to 15 weeks old, 60 to 100 g) was used for the experiment. Each animal was bred in a plastic cage provided with an empty can as a nest box under the following conditions: temperature at 23±2° C., illumination between 8:00 and 20:00, and free intake of commercial trout feed (SP, Nippon Formula Feed Mfg Co., Ltd., Yokohama, Japan). After 3 hours of fasting, Suncus murinus was anesthetized by an intraperitoneal injection of pentobarbital sodium (50 mg/kg). Through a midline incision, the stomach was exposed outside the body, and a force transducer was fixed via suture in the circular muscle direction of the body of stomach. The wire extending from the force transducer was inserted through the abdominal wall, passed under the skin, and exposed at the back of the neck. Thereafter, truncal vagotomy was performed. A lower portion of the esophagus was exposed, both branches of the vagus nerve were isolated, and about 3 mm of the vagus nerve was excised above the hepatic branch and the celiac branch. For sham-operated Suncus murinus, the vagus nerve was exposed, but not excised. An intravenous catheter was inserted in the right jugular, and extracorporeally fixed to the back. The catheter was filled with heparinized saline (100 units/mL) to prevent clotting. From 2 days after the operation, the gastric motility was recorded. Administration of motilin was initiated 10 minutes after completion of spontaneous phase III. Synthesized suncus motilin was continuously injected at 50 ng/kg/min over 10 minutes, and the continuously injected amount was 50 μL/100 g BW/min. Administration of ghrelin was initiated 10 minutes after completion of spontaneous phase II. […] Amplified analog signals were converted into digital signals by an analog-to-digital converter (ADC-20, Pico Technology Ltd, St Neots, UK), and the digital signals were recorded on a computer. Phase III contractions of MMC in conscious Suncus murinus were defined on the basis of those in dogs and humans (that is, clustered contractions with an amplitude of 8 g or more that lasts for 5 minutes or more). Gastric motility was quantitated using a motility index (MI). A motility index (MI) based on a drug was calculated using the following equation. MI (%)=A/B×100 A: AUC of contractions for 10 minutes during which the drug was administered B: […] Statistical analysis After ANOVA, Student's t test was performed.

[6] = ghrelin 50 ng/kg iv after feed intake
[7] = ghrelin 1,000 ng/kg iv after feed intake
[8] = ghrelin 3,000 ng/kg iv after feed intake

## CC[C@H]1OC(=O)[C@H](C)[C@@H](O[C@H]2C[C@@](C)(OC)[C@@H](O)[C@H](C)O2)[C@H](C)[C@@H](O[C@@H]2O[C@H](C)C[C@H](N(C)C(C)C)[C@H]2O)[C@@]2(C)CC(C)=C(O2)[C@H](C)C(=O)[C@]1(C)OC [mitemcinal]
[1]; mitemcinal administered to fasting subjects
  gastric emptying: enhances gastric emptying

## ghrelin: human ghrelin (Asubio Pharma); 28-amino acid residue peptide, hydroxyl group of serine at position 3 esterified by octanoic acid (GSS(Octanoyl)FLSPEHQRVQQRKESKKPPAKLQPR; UniProt Q9UBU3 24-51, looked up)
[2]
  contractions of the body of the stomach: did not induce contractions of the body of the stomach
[3]; [6]
  Motility Index (ΔMI): About 2.8%
  contractions of the body of the stomach: did not induce contractions of the body of the stomach
[3]; [7]
  Motility Index (ΔMI): About 7.6%
  contractions of the body of the stomach: did not induce contractions of the body of the stomach
[3]; [8]
  Motility Index (ΔMI): About 0.03%
  contractions of the body of the stomach: did not induce contractions of the body of the stomach
[4]
  gastric contractions: does not accelerate gastric contractions
[5]; phase II of MMC, fasted
  MI during administration of ghrelin, sham-operated compared with vagotomized: higher
[5]; sham-operated
  amplitude of spontaneous phase II contractions: amplified the amplitude of spontaneous phase II contractions
[5]; vagotomized
  amplitude of spontaneous phase II contractions: did not change the amplitude of spontaneous phase II contractions
[1]; continuous intravenous or massive administration of ghrelin after food intake, healthy subjects and patients with diabetes
  gastric emptying: accelerates gastric emptying
